# “Also recorded” adds a separate entry of the source. Square brackets hold non-standard residues; d marks the D form. Ends that are not written are not given here. Peptide text beside a SMILES is read from it. * marks the point of attachment. Lys(DNP) = Lys carrying DNP quencher; Sta = CC(C)C[C@H](N)[C@@H](O)CC(=O)O; Isovaleryl = CC(C)CC(=O)*; Nle = CCCC[C@H](N)C(=O)O
# What was measured:
# [1] = tested on: pepstatin-sensitive protease activity in rat serum; assay: Sap6 substrate cleavage in blood/serum from rat biofilm catheter and IV infection models; assay type: biochemical
# Method: FIG. 16 depicts the detection of pepstatin-sensitive activity in serum from C. albicans biofilm rat catheter and disseminated infection models. Detection of pepstatin-sensitive protease activity with the TFSYnRWP (SEQ ID NO: 23) fluorogenic probe in rat serum samples. Blood was collected both directly from C. albicans biofilm-infected catheters and peripherally 48 hours post biofilm infection (N=3 rats). Blood was also sampled peripherally 24 hours post IV infection with C. albicans (10^6 CFUs) (N=3 rats). Uninfected rats were used as a healthy control (N=3 rats). Activity assays were carried out using serum samples that had been diluted 25-fold into pH 4.0 buffer.
# FIG. 22 depicts detection of infection-specific aspartyl protease activity in serum from a rat catheter biofilm model using the Sap6-cleavable probe. Serum was collected both directly from the biofilm-infected catheter, peripherally from the rat jugular vein, and from the jugular vein of an uninfected control rat (n=2).
# To provide validation of the protease activity-based diagnostic approach in a rat biofilm catheter model, blood was directly sampled from (i) the catheters of rats with introduced C. albicans biofilms, (ii) peripherally from the same rats, and, (iii) following IV infection, and (iv) as a control, from rats not exposed to C. albicans.
# [2] = tested on: conditioned media from C. albicans biofilm and planktonic cultures; assay: Fluorogenic substrate cleavage in biofilm and planktonic conditioned media; assay type: biochemical; conditions: for preferential cleavage by biofilm culture medium (B/P): biofilm versus planktonic conditioned media
# Method: Activity assays with internally quenched fluorogenic substrates were performed up to one hour in black 96-well round bottom plates (Costar) using a BioTek Synergy H4 Hybrid Multi-Mode Microplate Reader set to 37° C. The following excitation/emission wavelengths were used: 328 nm/393 nm (gain 96) for MCA and Ex/Em of 485 nm/538 nm (gain 94) for 5-FAM. RFU was corrected to moles of product formation as appropriate using a conversion factor calculated from the total proteolytic hydrolysis of each substrate. Activity assays with conditioned media were performed with 10 μM substrate and either 20 μg/mL protein sample for […] (SEQ ID NO: 22) or 10 μg/mL protein sample for TFSYnRWP (SEQ ID NO: 23). For assays with recombinant Saps, 2 μg/mL Sap5 and Sap6 were used with the following substrate concentrations: […] (10 μM; SEQ ID NO: 22), IYRnHVQL (25 μM; SEQ ID NO: 24), WPSnNKVG (25 μM; SEQ ID NO: 25), and TFSYnRWP (10 μM; SEQ ID NO: 23).
# [3] = tested on: recombinant Sap6; assay: Internally quenched fluorogenic substrate activity assay with recombinant Sap6; assay type: biochemical, C. albicans; conditions: 2 μg/mL recombinant Sap, 10 μM substrate, pH 5.5
# Method: Specific activity was determined with 2 μg/mL recombinant Saps and the substrates […] (10 μM, SEQ ID NO: 22), IYRnHVQL (25 μM; SEQ ID NO: 24), WPSnNKVG (25 μM; SEQ ID NO: 25), and TFSYnRWP (10 μM; SEQ ID NO: 23). RFU was converted to moles of product formation using a correction factor experimentally determined for each substrate.
# For each protease, two 8-mer peptide sequences containing P4-P4′ residues from Sap5- or Sap6-favored cleavages were selected for incorporation into internally quenched fluorogenic peptides. The fluorogenic probes were synthesized bearing either a 5-carboxyfluorescein or 7-methoxycoumarin fluorophore with a corresponding quencher positioned at opposing termini such that peptide cleavage yields a fluorescence signal.
# Activity assays with internally quenched fluorogenic substrates were performed up to one hour in black 96-well round bottom plates (Costar) using a BioTek Synergy H4 Hybrid Multi-Mode Microplate Reader set to 37° C. The following excitation/emission wavelengths were used: 328 nm/393 nm (gain 96) for MCA and Ex/Em of 485 nm/538 nm (gain 94) for 5-FAM. RFU was corrected to moles of product formation as appropriate using a conversion factor calculated from the total proteolytic hydrolysis of each substrate. Activity assays with conditioned media were performed with 10 μM substrate and either 20 μg/mL protein sample for […] […]
# [4] = tested on: Kex2; assay: MSP-MS profiling of conditioned media with inhibitor pretreatment, cleavage sites assigned to Kex2; assay type: biochemical, C. albicans; conditions: 1 mM EDTA or 10 μM pepstatin A
# From the text: FIG. 8 depicts global substrate specificity profiling of recombinant Kex2 from Saccharomyces cerevisiae. (top) Time-dependent generation of cleavages following dibasic (P2-P1) K/R-R residues in the MSP-MS library for recombinant Kex2 and C. albicans wild-type (SN425) conditioned media from 24-hour biofilm and planktonic cultures. Cleavage sites assigned to Kex2 in the conditioned media profiles were sensitive to EDTA and insensitive to pepstatin treatments. […] This is illustrated in the differential cleavage pattern of an example MSP-MS peptide.
# [5] = tested on: aspartyl protease activity in conditioned media; assay: Pepstatin pretreatment of conditioned media, fluorogenic substrate cleavage; assay type: biochemical, C. albicans; conditions: 10 μM pepstatin, VFILWRTE and TFSYnRWP substrates
# Method: FIGS. 4A-4B depict probe activity in biofilm and planktonic conditioned media following pepstatin A pretreatment and in conditioned media from sap5Δ/Δ, sap6Δ/Δ, and sap5/6ΔΔ/ΔΔ deletion strains. […] Matched comparison to wild-type (SN425) conditioned media is provided (FIG. 12).
# To further confirm probe selectivity for the target proteases, conditioned media preparations were also assayed from sap5Δ/Δ and sap6Δ/Δ single deletion mutant strains and a sap5/6ΔΔ/ΔΔ double deletion mutant strain (FIG. 4B). […] Indeed, shotgun proteomics analysis on matched biofilm conditioned media preparations from the wild-type reference and mutant strains confirmed an increase in Sap6 levels associated with the sap5Δ/Δ mutant strain. In contrast, there was no observable increase in Sap5 levels associated with the sap6Δ/Δ mutant strain in agreement with the activity results (Table 5). We note that substrate cleavage in the sap5/6ΔΔ/ΔΔ double deletion mutant strain indicates proteolytic activity from additional proteases that are in lower abundance, possibly reflecting compensation for loss of SAP5/SAP6.
molecule,measurement,setting,value
"DArg-DArg-Lys(MCA)-Thr-Phe-Ser-Tyr-Nle-Arg-Trp-Pro-Lys(DNP) ({dR-dR-Lys(MCA)}-TFSY[Nle]RWP-{Lys(DNP)}) [TFSYnRWP, internally quenched fluorogenic substrate for Sap6]",substrate cleavage in blood harvested from infected rats,[1]; C. albicans biofilm catheter or IV infected rats,readily detected
same,cleavage activity in uninfected rats,[1]; rats not exposed to C. albicans,absent
same,preferential cleavage by biofilm culture medium (B/P),[2],4.4 fold
same,substrate activity in sap5Δ/Δ deletion strain conditioned media,[2]; sap5Δ/Δ single deletion strain,increased
same,"substrate cleavage, biofilm versus planktonic conditioned media","[2]; wild-type, 24-hour conditioned media, 10 μM substrate",higher biofilm activity
same,specific activity and selectivity for Sap6,[3],highest specific activity and selectivity; also recorded: high specific activity and selectivity
"VFILWRTE (also: CPQ2 quencher, place not given here, 5-FAM, place not given here, DArg-DArg-NH2, place not given here) [internally quenched fluorogenic substrate for Sap5]",preferential cleavage by biofilm culture medium (B/P),[2],10 fold
O=C(O)CN(CCN(CC(=O)O)CC(=O)O)CC(=O)O [EDTA],sensitivity of Kex2-assigned cleavage sites to inhibitor treatment,[4],sensitive
CC(C)CC(=O)N[C@H](C(=O)N[C@H](C(=O)N[C@@H](CC(C)C)[C@@H](O)CC(=O)N[C@@H](C)C(=O)N[C@@H](CC(C)C)[C@@H](O)CC(=O)O)C(C)C)C(C)C [Pepstatin A] (Isovaleryl-VV[Sta]A[Sta]-OH),effect of pepstatin pretreatment on TFSYnRWP cleavage in blood of infected rats,[1]; pepstatin pretreatment,significantly reduced
same,sensitivity of Kex2-assigned cleavage sites to inhibitor treatment,[4],insensitive
same,effect of pepstatin pretreatment on substrate cleavage,[5],significant reduction in substrate cleavage

# From patent US11112409B2, “Systems and compositions for diagnosing pathogenic fungal infection and methods of using the same” (priority 2016, dated 2021)
